Test results as given in patent publication US20230027929A1, “MrgprX2 Antagonists and Uses Thereof” (Dermira, Inc., priority 2019, published 2023).

These compounds were tested against T1, hMrgpMRGPRX2 (Homo sapiens, UniProt Q96LB1) (assay: FLIPR intracellular calcium mobilization, antagonist activity in recombinant hMrgpMRGPRX2 expressing cells). Conditions: read-out: Human MrgprX2 Antagonist pIC50 (converted).
T1 construct: expressed in transfected cells
T1 sequence (Q96LB1 1-330): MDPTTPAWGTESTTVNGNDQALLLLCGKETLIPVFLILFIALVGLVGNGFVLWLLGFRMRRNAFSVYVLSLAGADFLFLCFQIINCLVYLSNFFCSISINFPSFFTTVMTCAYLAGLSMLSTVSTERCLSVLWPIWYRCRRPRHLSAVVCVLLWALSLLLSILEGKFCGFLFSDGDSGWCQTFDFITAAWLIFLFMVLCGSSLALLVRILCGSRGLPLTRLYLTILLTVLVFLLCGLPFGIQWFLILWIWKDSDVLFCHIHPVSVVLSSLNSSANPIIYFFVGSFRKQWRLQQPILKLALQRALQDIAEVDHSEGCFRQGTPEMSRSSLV
Format: cell-based
From the text: Potent and selective hMrgpMRGPRX2 compounds have been generated from compounds identified during a high throughput screening (HTS) campaign and followed up with cycles of structure activity based medicinal chemistry efforts. These compounds were characterized in recombinant hMrgpMRGPRX2 expressing cells for their antagonist activity and the potency was confirmed in the human mast cell line LAD-2, where the target is endogenously expressed. The assays used to determine potencies are functional read-out looking at intracellular calcium mobilization using the FLIPR™ technology. In these FLIPR assays, we test the identified compounds using recombinant cellular systems expressing mouse MrgprB2, mouse MrgprA1, gerbil MrgpMRGPRX2 orthologue, Chinese hamster MrgpMRGPRX2 orthologue and cynomolgus monkey MrgpMRGPRX2 orthologue, respectively for orthologue activity.

Structure (SMILES)	IC50
CC1(C(=O)Nc2ccc(Oc3cccc(Cl)c3)cn2)CCOCC1 [Compound E015]	0.0251 µM
CC1(C)C(C(=O)Nc2ccc(Oc3cc(F)cc(C(N)=O)c3)cn2)C1(C)C [Compound E075]	0.501 µM
CC1(C)CC(C(=O)Nc2ccc(Oc3ccc(F)c(F)c3)cn2)C1 [Compound E059]	0.2 µM
CC(C)C(=O)Nc1ccc(Oc2cc(F)cc(F)c2)cn1 [Compound E008]	0.00631 µM
CC1(C)C(C(=O)Nc2ccc(Oc3ccc(C(N)=O)nc3)cn2)C1(C)C [Compound E076]	1.26 µM
CC(C)C(=O)Nc1ccc(Oc2ccc(F)cc2)cn1 [Compound E003]	0.316 µM
CC1(C)C(C(=O)Nc2cnc(Cl)cn2)C1(C)C [Compound E214]	0.1 µM
CC1(C)C(C(=O)Nc2cnc(-c3cc(F)cc(F)c3)cn2)C1(C)C [Compound E227]	0.0339 µM
Cn1cc(-c2ccc(NC(=O)C3C(C)(C)C3(C)C)nc2)nn1 [Compound E190, 2,2,3,3-tetramethyl-N-[5-(1-methyltriazol-4-yl)-2-pyridyl]cyclopropanecarboxamide]	0.631 µM
CC1(C(=O)Nc2ccc(Oc3cccc(F)c3)cn2)CCOCC1 [Compound E006]	3.16 µM
CN(C(=O)Nc1ccc(Oc2ccc(F)c(F)c2)cn1)C1CC1 [Compound E108]	0.631 µM
O=C(CC1CCOCC1)Nc1ccc(Oc2ccc(F)c(F)c2)cn1 [Compound E030]	7.94 µM
CCN(C[C@@H](O)C(F)(F)F)C(=O)Nc1ccc(OCc2cccc(F)c2)cn1 [Compound E138]	0.871 µM
CC1(C)C(C(=O)Nc2ccc(Oc3ccnc(F)c3)cn2)C1(C)C [Compound E060]	0.00316 µM
CC(C)(C#N)C(=O)Nc1ccc(Oc2ccc(F)c(F)c2)cn1 [Compound E026]	2 µM
O=C(Nc1ccc(Oc2ccc(F)c(F)c2)cn1)[C@H]1C[C@@H]1C(F)(F)F [Compound E049]	0.0251 µM
CC1(C)C(C(=O)Nc2ccc(Oc3ccc(F)nc3)cn2)C1(C)C [Compound E056]	0.00501 µM
CC1(C)C(C(=O)Nc2cnc(N3CCCC3)cn2)C1(C)C [Compound E233, 2,2,3,3-tetramethyl-N-(5-pyrrolidin-1-ylpyrazin-2-yl)cyclopropanecarboxamide]	0.331 µM
CC1(C)CN(C(=O)Nc2ccc(Oc3ccc(F)c(F)c3)cn2)C1 [Compound E124]	3.24 µM
CCN(C[C@@H](O)C(F)(F)F)C(=O)Nc1ccc(Oc2ccccc2F)cn1 [Compound E122]	0.0038 µM

Structure (SMILES)	IC50
CC1(C)C(C(=O)Nc2ccc(Oc3cc(F)cc(C#N)c3)cn2)C1(C)C [Compound E042]	0.00316 µM
CC(C)(CO)C(=O)Nc1ccc(Oc2cccc(F)c2)cn1 [Compound E014]	3.98 µM
CCN(C[C@@H](O)C(F)(F)F)C(=O)Nc1ccc(Oc2ccc(C#N)cc2)cn1 [Compound E115]	8.91 µM
CCN(C[C@@H](O)C(F)(F)F)C(=O)Nc1ccc(Oc2cncc(F)c2)cn1 [Compound E110]	5.13 µM
CCN(CC(O)C(F)(F)F)C(=O)Nc1ccc(Oc2cccc(F)c2)cn1 (stereo not drawn) [Compound E127]	0.0158 µM
CC1(C)C(C(=O)Nc2cc(C(=O)NCC(F)(F)F)ccn2)C1(C)C [Compound E269, 2-[(2,2,3,3-tetramethylcyclopropanecarbonyl)amino]-N-(2,2,2-trifluoroethyl)pyridine-4-carboxamide]	3.16 µM
CC1(C)C(C(=O)Nc2ccc(OCC(F)(F)F)cn2)C1(C)C [Compound E093, 2,2,3,3-tetramethyl-N-[5-(2,2,2-trifluoroethoxy)-2-pyridyl]cyclopropanecarboxamide]	0.0316 µM
CC1(C)C(C(=O)Nc2cnc(Oc3cc(F)cc(F)c3)cn2)C1(C)C [Compound E220]	0.00158 µM
CC1(C)C(C(=O)Nc2cc(N3CCCC3)ccn2)C1(C)C [Compound E146, 2,2,3,3-tetramethyl-N-(4-pyrrolidin-1-yl-2-pyridyl)cyclopropanecarboxamide]	7.94 µM
O=C(Nc1ccc(Oc2ccc(F)c(F)c2)cn1)C1CCOCC1 [Compound E024]	2 µM
CCN(C[C@H](C)O)C(=O)Nc1ccc(Oc2ccc(F)c(F)c2)cn1 [Compound E109]	0.363 µM
CC1(C)CC1C(=O)Nc1ccc(Oc2cc(F)cc(C#N)c2)cn1 (stereo not drawn) [Compound E041]	0.158 µM
Cc1nc(-c2ccc(NC(=O)C3C(C)(C)C3(C)C)nc2)no1 [Compound E272, 2,2,3,3-tetramethyl-N-[5-(5-methyl-1,2,4-oxadiazol-3-yl)-2-pyridyl]cyclopropanecarboxamide]	0.00851 µM
CCN(C[C@@H](O)C(F)(F)F)C(=O)Nc1ccc(Oc2cc(F)cc(F)c2)cn1 [Compound E117]	0.00204 µM
CNc1ccc(NC(=O)C2C(C)(C)C2(C)C)nc1 [Compound E079, 2,2,3,3-tetramethyl-N-[5-(methylamino)-2-pyridyl]cyclopropanecarboxamide]	1.66 µM
CC1(C)C(C(=O)Nc2cc(C#N)ccn2)C1(C)C [Compound E207]	3.16 µM
CC1(C)C(C(=O)Nc2cc(Oc3ccc(F)nc3)ccn2)C1(C)C [Compound E148, N-[4-[(6-fluoro-3-pyridyl)oxy]-2-pyridyl]-2,2,3,3-tetramethyl-cyclopropanecarboxamide]	0.0302 µM
CC1(C)C(C(=O)Nc2cc(OCC(F)(F)F)ccn2)C1(C)C [Compound E149, 2,2,3,3-tetramethyl-N-[4-(2,2,2-trifluoroethoxy)-2-pyridyl]cyclopropanecarboxamide]	2 µM
CC1(C(=O)Nc2ccc(Oc3ccc(F)c(F)c3)cn2)CCOCC1 [Compound E027]	3.16 µM

Continued, values first:

IC50	Structure (SMILES)
6.31 µM	CC(C)C(=O)Nc1ccc(Br)cn1 [Compound E202]
0.0631 µM	CC(C)C(=O)Nc1ccc(-c2cccc(F)c2)cn1 [Compound E166]
1.41 µM	CCN(C[C@H](C)O)C(=O)Nc1cnc(Oc2cc(F)cc(F)c2)cn1 [Compound E235]
0.0251 µM	CC1(C)CC1C(=O)Nc1cnc(Oc2cc(F)cc(F)c2)cn1 (stereo not drawn) [Compound E219]
5.01 µM	CCN(C[C@H](C)O)C(=O)Nc1ccc(-c2ccccc2)cn1 [Compound E195]
7.94 µM	CC(C)C(=O)Nc1cnc(Oc2ccccc2)cn1 [Compound E217, 2-methyl-N-(5-phenoxypyrazin-2-yl)propanamide]
0.00155 µM	CCN(C[C@@](C)(O)C(F)(F)F)C(=O)Nc1cnc(Oc2ccc(F)cc2F)cn1 [Compound E258]
7.41 µM	CCN(C[C@@H](O)C(F)(F)F)C(=O)Nc1cnc(Oc2cc(F)cc(F)c2)c(C)n1 [Compound E242]
1.55 µM	CCN(C[C@@H](O)C(F)(F)F)C(=O)Nc1cc(Oc2cccc(C#N)c2)ccn1 [Compound E156]
0.794 µM	CC(C)C(=O)Nc1cc(Oc2ccccc2)ccn1 [Compound E145, 2-methyl-N-(4-phenoxy-2-pyridyl)propanamide]
0.00661 µM	CCN(C[C@@H](O)C(F)(F)F)C(=O)Nc1cnc(Oc2cccc(F)c2F)cn1 [Compound E239]
0.501 µM	CC(C)C(=O)Nc1ccc(Cc2ccccc2F)cn1 [Compound E268]
0.0251 µM	CC1(C)CC1C(=O)Nc1ccc(-c2cc(F)ccc2F)cn1 (stereo not drawn) [Compound E182]
0.00407 µM	CCN(C[C@@H](O)C(F)(F)F)C(=O)Nc1cnc(Oc2ccc(F)cc2Cl)cn1 [Compound E260]
0.851 µM	CCN(C[C@@H](O)C(F)(F)F)C(=O)Nc1ccc(F)cn1 [Compound E196]
0.692 µM	CCN(C[C@@H](O)C(F)(F)F)C(=O)Nc1cc(Oc2ccccc2F)ncn1 [Compound E290, 1-ethyl-3-[6-(2-fluorophenoxy)pyrimidin-4-yl]-1-[(2R)-3,3,3-trifluoro-2-hydroxy-propyl]urea]
1 µM	O=C(Nc1cc(Oc2cc(F)cc(F)c2)ccn1)C1CC1 [Compound E144, N-[4-(3,5-difluorophenoxy)-2-pyridyl]cyclopropanecarboxamide]
0.0151 µM	CN(C[C@@](C)(O)C(F)(F)F)C(=O)Nc1ccc(Oc2ccc(F)c(F)c2)cn1 [Compound E139, 3-[5-(3,4-difluorophenoxy)-2-pyridyl]-1-methyl-1-[(2R)-3,3,3-trifluoro-2-hydroxy-2-methyl-propyl]urea]
0.0017 µM	CCN(C[C@@H](O)C(F)(F)F)C(=O)Nc1cnc(Oc2cc(F)ccc2F)cn1 [Compound E241]
2.29 µM	CCN(C[C@@H](O)C(F)(F)F)S(=O)(=O)Nc1ccc(Oc2ccc(F)c(F)c2)cn1 [Compound E286, 5-(3,4-difluorophenoxy)-2-[[ethyl-[(2R)-3,3,3-trifluoro-2-hydroxy-propyl]sulfamoyl]amino]pyridine]
6.31 µM	CC(C)C(=O)Nc1ccc(C2CCCC2)cn1 [Compound E177, N-(5-cyclopentyl-2-pyridyl)-2-methyl-propanamide]
0.0195 µM	CC1(C)CC1C(=O)Nc1ccc(-c2cccc(F)c2F)cn1 (stereo not drawn) [Compound E183]
0.000575 µM	CCN(C[C@@H](O)C(F)(F)F)C(=O)Nc1cc(Oc2cc(F)cc(F)c2)ccn1 [Compound E163, 3-[4-(3,5-difluorophenoxy)-2-pyridyl]-1-ethyl-1-[(2R)-3,3,3-trifluoro-2-hydroxy-propyl]urea]
0.501 µM	CC(C)C(=O)Nc1ccc(Cc2cccc(F)c2)cn1 [Compound E276, N-[5-[(3-fluorophenyl)methyl]-2-pyridyl]-2-methyl-propanamide]
